One assay relates to A549. Nature of the assay: cells. Particulars: Homo sapiens, A549, 72 h.
The next assay has as its system NCI-H2228. Nature of the assay: cells. Conditions: Homo sapiens, NCI-H2228, 72 h.
For another assay, the system named is HCC78. Briefly: Antiproliferative activity against human HCC78 cells harboring SLC34A2-ROS1 after 72 hrs by MTT assay. Particulars: HCC78, 72 h. In kind it is functional, cell-based. On the technique in general: Tetrazolium assays rely on reduction of a dye to a coloured formazan, in cell work by metabolically active cells.
A further assay deals with NCI-H460. Nature of the assay: cells. Conditions: Homo sapiens, NCI-H460, 72 h.
In the next assay the test system is KARPAS-299. Briefly: Antiproliferative activity against human KARPAS299 cells harboring NPM-ALK after 72 hrs by MTT assay. In kind it is functional, cell-based. Conditions: KARPAS-299, 72 h.
In assay [1] the target is Proto-oncogene tyrosine-protein kinase ROS (Homo sapiens, UniProt P08922). Briefly: Inhibition of recombinant human N-terminal GST-tagged ROS1 cytoplasmic domain (1883 to 2347 residues) expressed in baculovirus expression system using peptide substrate after 1 hr by mobility shift assay.
The target in assay [2] is Epidermal growth factor receptor (Homo sapiens, UniProt P00533).
Chain of Epidermal growth factor receptor (P00533 whole entry): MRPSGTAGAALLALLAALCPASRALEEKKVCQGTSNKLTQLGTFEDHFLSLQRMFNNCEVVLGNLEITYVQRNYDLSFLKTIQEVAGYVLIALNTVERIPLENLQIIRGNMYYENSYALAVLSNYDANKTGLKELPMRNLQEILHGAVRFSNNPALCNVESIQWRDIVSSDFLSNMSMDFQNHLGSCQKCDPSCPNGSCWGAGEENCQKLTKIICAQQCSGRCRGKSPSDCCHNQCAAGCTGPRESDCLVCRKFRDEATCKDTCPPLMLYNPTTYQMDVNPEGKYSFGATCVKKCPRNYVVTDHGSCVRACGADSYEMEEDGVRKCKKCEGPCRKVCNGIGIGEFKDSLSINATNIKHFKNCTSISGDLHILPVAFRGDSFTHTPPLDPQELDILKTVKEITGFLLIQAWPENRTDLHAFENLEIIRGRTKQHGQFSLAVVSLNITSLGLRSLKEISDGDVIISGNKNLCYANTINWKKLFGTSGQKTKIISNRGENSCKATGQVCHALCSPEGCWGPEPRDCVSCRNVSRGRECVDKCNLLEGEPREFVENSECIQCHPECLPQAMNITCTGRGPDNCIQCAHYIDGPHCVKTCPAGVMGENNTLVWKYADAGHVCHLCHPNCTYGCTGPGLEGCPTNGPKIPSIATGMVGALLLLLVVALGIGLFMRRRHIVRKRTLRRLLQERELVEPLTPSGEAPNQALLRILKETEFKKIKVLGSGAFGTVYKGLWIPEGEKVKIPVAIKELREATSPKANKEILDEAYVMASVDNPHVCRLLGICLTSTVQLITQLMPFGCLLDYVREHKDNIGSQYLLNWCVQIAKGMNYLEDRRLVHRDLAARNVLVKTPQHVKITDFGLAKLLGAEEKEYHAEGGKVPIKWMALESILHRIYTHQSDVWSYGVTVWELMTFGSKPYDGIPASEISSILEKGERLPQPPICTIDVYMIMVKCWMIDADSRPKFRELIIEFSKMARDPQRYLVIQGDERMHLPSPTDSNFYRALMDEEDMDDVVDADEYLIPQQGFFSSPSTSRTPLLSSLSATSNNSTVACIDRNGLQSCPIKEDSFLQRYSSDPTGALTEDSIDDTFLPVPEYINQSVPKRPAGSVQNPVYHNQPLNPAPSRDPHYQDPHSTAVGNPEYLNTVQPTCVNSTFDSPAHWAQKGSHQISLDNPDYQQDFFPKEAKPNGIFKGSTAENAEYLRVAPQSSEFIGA
Description: Inhibition of recombinant human N-terminal GST-tagged EGFR cytoplasmic domain (669 to 1210 residues) expressed in baculovirus expression system using peptide substrate after 1 hr by mobility shift assay
In assay [3] the target is ALK tyrosine kinase receptor (Homo sapiens, UniProt Q9UM73).
Chain of ALK tyrosine kinase receptor (Q9UM73 whole entry, the tested form may be a part): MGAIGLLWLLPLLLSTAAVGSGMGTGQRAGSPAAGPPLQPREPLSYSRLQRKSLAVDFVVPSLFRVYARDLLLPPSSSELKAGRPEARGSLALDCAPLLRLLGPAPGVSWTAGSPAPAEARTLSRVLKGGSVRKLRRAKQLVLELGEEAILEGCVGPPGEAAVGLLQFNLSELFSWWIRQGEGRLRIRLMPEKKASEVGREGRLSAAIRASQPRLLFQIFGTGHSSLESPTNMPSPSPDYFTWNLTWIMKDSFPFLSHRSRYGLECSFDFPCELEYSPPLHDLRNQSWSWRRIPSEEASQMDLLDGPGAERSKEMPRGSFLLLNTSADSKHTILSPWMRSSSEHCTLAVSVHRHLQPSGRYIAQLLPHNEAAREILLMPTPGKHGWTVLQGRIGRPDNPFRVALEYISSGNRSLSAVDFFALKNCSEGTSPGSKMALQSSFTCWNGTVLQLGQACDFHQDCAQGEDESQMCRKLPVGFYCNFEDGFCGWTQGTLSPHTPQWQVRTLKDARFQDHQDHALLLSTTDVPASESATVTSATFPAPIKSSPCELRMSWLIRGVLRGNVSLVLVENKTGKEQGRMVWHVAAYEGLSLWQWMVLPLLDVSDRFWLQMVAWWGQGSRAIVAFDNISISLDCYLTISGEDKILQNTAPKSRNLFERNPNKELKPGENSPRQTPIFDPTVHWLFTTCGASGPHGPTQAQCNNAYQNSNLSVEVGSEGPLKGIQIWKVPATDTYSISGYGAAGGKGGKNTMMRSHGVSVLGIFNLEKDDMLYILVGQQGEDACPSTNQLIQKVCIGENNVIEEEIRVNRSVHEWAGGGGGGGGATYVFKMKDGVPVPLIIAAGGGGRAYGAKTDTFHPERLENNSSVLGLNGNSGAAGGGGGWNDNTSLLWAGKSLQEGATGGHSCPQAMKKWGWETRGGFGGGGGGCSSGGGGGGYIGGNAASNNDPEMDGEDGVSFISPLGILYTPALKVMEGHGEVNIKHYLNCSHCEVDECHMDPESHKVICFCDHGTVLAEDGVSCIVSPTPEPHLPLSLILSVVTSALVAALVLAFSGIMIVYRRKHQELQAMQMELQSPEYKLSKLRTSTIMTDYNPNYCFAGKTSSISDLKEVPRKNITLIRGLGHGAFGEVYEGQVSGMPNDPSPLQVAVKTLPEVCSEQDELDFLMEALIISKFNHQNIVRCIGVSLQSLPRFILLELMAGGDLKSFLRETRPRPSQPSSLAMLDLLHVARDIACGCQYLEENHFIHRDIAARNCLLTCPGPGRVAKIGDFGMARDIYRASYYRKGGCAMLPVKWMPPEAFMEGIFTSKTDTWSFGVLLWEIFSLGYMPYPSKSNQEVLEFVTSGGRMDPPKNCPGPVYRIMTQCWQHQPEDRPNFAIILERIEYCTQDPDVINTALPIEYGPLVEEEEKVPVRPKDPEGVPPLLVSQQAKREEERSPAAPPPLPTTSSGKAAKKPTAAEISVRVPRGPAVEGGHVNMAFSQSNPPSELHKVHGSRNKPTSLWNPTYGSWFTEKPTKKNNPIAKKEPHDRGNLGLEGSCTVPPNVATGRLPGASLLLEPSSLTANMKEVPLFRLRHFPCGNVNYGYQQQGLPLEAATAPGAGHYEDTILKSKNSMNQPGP
Description: Inhibition of recombinant human N-terminal GST-tagged ALK cytoplasmic domain (1058 to 1620 residues) expressed in baculovirus expression system using peptide substrate after 1 hr by mobility shift assay
Assay [4] concerns the target Hepatocyte growth factor receptor (Homo sapiens, UniProt P08581). Briefly: Inhibition of recombinant human N-terminal GST-tagged c-MET cytoplasmic domain (956 to 1390 residues) expressed in baculovirus expression system using peptide substrate after 1 hr by mobility shift assay.

Chain of Hepatocyte growth factor receptor (P08581 whole entry, the tested form may be a part): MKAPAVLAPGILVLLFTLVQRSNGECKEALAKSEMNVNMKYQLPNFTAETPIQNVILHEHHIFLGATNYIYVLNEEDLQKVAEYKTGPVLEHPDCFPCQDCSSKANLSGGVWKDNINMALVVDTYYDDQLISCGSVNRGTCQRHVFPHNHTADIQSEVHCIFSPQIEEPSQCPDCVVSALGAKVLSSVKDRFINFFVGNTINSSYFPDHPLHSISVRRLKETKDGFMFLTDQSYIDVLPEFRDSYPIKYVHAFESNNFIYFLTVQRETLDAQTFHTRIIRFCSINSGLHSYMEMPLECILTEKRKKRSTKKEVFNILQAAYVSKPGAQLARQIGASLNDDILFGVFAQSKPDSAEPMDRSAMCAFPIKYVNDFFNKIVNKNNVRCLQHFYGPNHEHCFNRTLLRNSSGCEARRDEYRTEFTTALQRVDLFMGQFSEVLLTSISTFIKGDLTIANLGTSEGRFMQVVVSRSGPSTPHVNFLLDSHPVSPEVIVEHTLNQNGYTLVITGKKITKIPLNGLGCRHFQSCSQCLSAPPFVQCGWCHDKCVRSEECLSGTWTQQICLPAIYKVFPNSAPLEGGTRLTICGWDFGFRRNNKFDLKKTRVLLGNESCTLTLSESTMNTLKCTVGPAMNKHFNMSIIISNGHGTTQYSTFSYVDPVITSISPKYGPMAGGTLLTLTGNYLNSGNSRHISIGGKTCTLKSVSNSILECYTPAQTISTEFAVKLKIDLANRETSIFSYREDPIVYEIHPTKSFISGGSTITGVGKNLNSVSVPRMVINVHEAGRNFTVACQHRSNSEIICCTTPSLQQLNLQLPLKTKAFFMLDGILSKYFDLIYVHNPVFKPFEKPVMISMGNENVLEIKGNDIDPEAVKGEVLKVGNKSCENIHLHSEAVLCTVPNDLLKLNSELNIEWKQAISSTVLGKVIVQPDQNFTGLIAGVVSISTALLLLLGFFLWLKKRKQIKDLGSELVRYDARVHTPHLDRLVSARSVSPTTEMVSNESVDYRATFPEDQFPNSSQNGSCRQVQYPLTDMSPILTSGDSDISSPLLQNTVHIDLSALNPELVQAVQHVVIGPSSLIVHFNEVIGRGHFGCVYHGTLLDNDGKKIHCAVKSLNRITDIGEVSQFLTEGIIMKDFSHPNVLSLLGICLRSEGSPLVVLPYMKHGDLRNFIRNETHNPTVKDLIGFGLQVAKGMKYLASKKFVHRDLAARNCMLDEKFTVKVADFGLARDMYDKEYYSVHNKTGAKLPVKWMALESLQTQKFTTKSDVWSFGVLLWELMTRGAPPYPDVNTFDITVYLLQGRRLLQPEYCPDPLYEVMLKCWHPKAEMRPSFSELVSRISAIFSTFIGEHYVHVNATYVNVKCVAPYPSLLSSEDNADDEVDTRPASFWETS
Description for A549: Antiproliferative activity against human A549 cells harboring EGFR after 72 hrs by MTT assay
Description for NCI-H2228: Antiproliferative activity against human NCI-H2228 cells harboring EML4-ALK after 72 hrs by MTT assay
Description for NCI-H460: Antiproliferative activity against human NCI-H460 cells after 72 hrs by MTT assay

As to `CC(C)Oc1cc(-c2nc(CNCCO)cs2)ccc1Nc1ncc(Cl)c(Nc2ccccc2S(=O)(=O)C(C)C)n1`, the IC50 in the assay on A549 is more than 1 µM; in the assay with NCI-H2228 it was 0.35 µM; in the assay with HCC78 it was more than 1 µM; in the assay on NCI-H460, more than 1 µM; with KARPAS-299, 0.19 µM.
On to `COc1cc(-n2cc(CN3CCCCC3)nn2)ccc1Nc1ncc(Cl)c(Nc2ccccc2S(=O)(=O)C(C)C)n1`, for which the IC50 in the assay on A549 is more than 1 µM; with NCI-H2228, 0.2 µM; with HCC78, 0.18 µM; with NCI-H460, 0.97 µM; in the assay with KARPAS-299, 0.13 µM.
The like results for `CCN(CC)Cc1csc(-c2ccc(Nc3ncc(Cl)c(Nc4ccccc4S(=O)(=O)C(C)C)n3)c(OC(C)C)c2)n1` were, in that order, more than 1 µM, 0.5 µM, 0.92 µM, 0.75 µM and 0.32 µM.
As to `COc1cc(-n2cc(CNO)nn2)ccc1Nc1ncc(Cl)c(Nc2ccccc2S(=O)(=O)C(C)C)n1`, the IC50 with A549 is more than 1 µM; with NCI-H2228, more than 1 µM; with HCC78, more than 1 µM; with NCI-H460, more than 1 µM; in the assay on KARPAS-299, 0.82 µM.
With `COc1cc(-c2nc(CN3CCCCC3)cs2)ccc1Nc1ncc(Cl)c(Nc2ccccc2S(=O)(=O)C(C)C)n1`, the IC50 in the assay on A549 is more than 1 µM; in the assay with NCI-H2228, 0.18 µM; in the assay on HCC78, 0.43 µM; in the assay with NCI-H460 it was more than 1 µM; with KARPAS-299 it was 0.1 µM.
In the case of `COc1cc(-c2nc(CN3CCOCC3)cs2)ccc1Nc1ncc(Cl)c(Nc2ccccc2S(=O)(=O)C(C)C)n1`, the half-inhibitory concentration (IC50) in the assay with A549 is more than 1 µM; in the assay on NCI-H2228, 0.13 µM; with HCC78, 0.49 µM; in the assay with NCI-H460, more than 1 µM; with KARPAS-299 it was 0.15 µM.
`COc1cc(-n2cc(CN3CCC[C@H]3CO)nn2)ccc1Nc1ncc(Cl)c(Nc2ccccc2S(=O)(=O)C(C)C)n1`: the IC50 in the assay with A549 is 0.91 µM; in the assay with NCI-H2228, 0.38 µM; with HCC78 it was 0.52 µM; in the assay on NCI-H460, more than 1 µM; in the assay with KARPAS-299 it was 0.32 µM.
The like results for `COc1cc(-n2cc(CN3CCCC3)nn2)ccc1Nc1ncc(Cl)c(Nc2ccccc2S(=O)(=O)C(C)C)n1` were, in that order, more than 1 µM, 0.41 µM, 0.27 µM, more than 1 µM and 0.38 µM.
Regarding `COc1cc(-c2nc(CN3CCC[C@H]3CO)cs2)ccc1Nc1ncc(Cl)c(Nc2ccccc2S(=O)(=O)C(C)C)n1`, the IC50 in the assay with A549 was more than 1 µM; with NCI-H2228, 0.23 µM; in the assay with HCC78 it was 0.47 µM; in the assay on NCI-H460, more than 1 µM; with KARPAS-299, 0.16 µM.
With `COc1cc(-n2cc(CN3CCN(C(C)=O)CC3)nn2)ccc1Nc1ncc(Cl)c(Nc2ccccc2S(=O)(=O)C(C)C)n1`, the IC50 with A549 is more than 1 µM; in the assay on NCI-H2228, 0.31 µM; with HCC78, 0.35 µM; in the assay with NCI-H460, more than 1 µM; with KARPAS-299, 0.28 µM.
`CC(C)Oc1cc(-c2nc(CN3CCCCC3)cs2)ccc1Nc1ncc(Cl)c(Nc2ccccc2S(=O)(=O)C(C)C)n1`: the half-maximal inhibitory concentration (IC50) in the assay on A549 is more than 1 µM; in the assay on NCI-H2228, 0.23 µM; in the assay with HCC78 it was more than 1 µM; in the assay with NCI-H460 it was more than 1 µM; in the assay on KARPAS-299, 0.12 µM.
Consider `COc1cc(-n2cc(CN(C)C)nn2)ccc1Nc1ncc(Cl)c(Nc2ccccc2S(=O)(=O)C(C)C)n1`, for which the IC50 was more than 1 µM in the assay with A549; 0.48 µM with NCI-H2228; 0.38 µM in the assay on HCC78; more than 1 µM with NCI-H460; more than 1 µM in the assay with KARPAS-299.
For `COc1cc(-c2nc(CNCCO)cs2)ccc1Nc1ncc(Cl)c(Nc2ccccc2S(=O)(=O)C(C)C)n1`, the IC50 with A549 was more than 1 µM; in the assay on NCI-H2228 it was 0.3 µM; with HCC78 it was 0.33 µM; in the assay with NCI-H460 it was more than 1 µM; with KARPAS-299, 0.23 µM.
On to `CC(C)Oc1cc(-c2nc(CN3CCCC3)cs2)ccc1Nc1ncc(Cl)c(Nc2ccccc2S(=O)(=O)C(C)C)n1`, for which the IC50 in the assay on A549 is more than 1 µM; in the assay with NCI-H2228, 0.35 µM; with HCC78, more than 1 µM; in the assay with NCI-H460, more than 1 µM; in the assay with KARPAS-299, 0.19 µM.
Turning to `CC1CCN(Cc2csc(-c3ccc(Nc4ncc(Cl)c(Nc5ccccc5S(=O)(=O)C(C)C)n4)c(OC(C)C)c3)n2)CC1`, the IC50 in the assay with A549 is more than 1 µM; with NCI-H2228 it was 0.28 µM; in the assay on HCC78, more than 1 µM; with NCI-H460, more than 1 µM; with KARPAS-299 it was 0.24 µM.
Turning to `CC(C)Oc1cc(-c2nc(CN3CCN(C)CC3)cs2)ccc1Nc1ncc(Cl)c(Nc2ccccc2S(=O)(=O)C(C)C)n1`, the IC50 in assay [1] was 0.0193 µM; in assay [2] it was more than 1 µM; in assay [3], 0.0034 µM; in the assay with A549 it was more than 1 µM; in assay [4] it was more than 1 µM; with NCI-H2228, 0.099 µM. The IC50 in the assay with HCC78 is 0.81 µM; with NCI-H460 it was more than 1 µM; with KARPAS-299 it was 0.028 µM.
Consider `COc1cc(-c2nc(CN3CCCC3)cs2)ccc1Nc1ncc(Cl)c(Nc2ccccc2S(=O)(=O)C(C)C)n1`, for which the IC50 is more than 1 µM in the assay with A549; 0.34 µM with NCI-H2228; 0.78 µM in the assay with HCC78; more than 1 µM in the assay with NCI-H460; 0.14 µM in the assay with KARPAS-299.
As to `CC(C)Oc1cc(-c2nc(CN3CCC[C@H]3CO)cs2)ccc1Nc1ncc(Cl)c(Nc2ccccc2S(=O)(=O)C(C)C)n1`, the IC50 in the assay with A549 is 0.85 µM; with NCI-H2228, 0.3 µM; in the assay on HCC78, more than 1 µM; with NCI-H460, more than 1 µM; in the assay with KARPAS-299, 0.2 µM.
For the compound `CCN(CC)Cc1cn(-c2ccc(Nc3ncc(Cl)c(Nc4ccccc4S(=O)(=O)C(C)C)n3)c(OC)c2)nn1`, the IC50 with A549 was more than 1 µM; in the assay with NCI-H2228 it was more than 1 µM; in the assay on HCC78, more than 1 µM; in the assay with NCI-H460, more than 1 µM; in the assay on KARPAS-299 it was 0.5 µM.
Turning to `COc1cc(-n2cc(CN3CCNCC3)nn2)ccc1Nc1ncc(Cl)c(Nc2ccccc2S(=O)(=O)C(C)C)n1`, the IC50 is 0.008 µM in assay [1]; 0.89 µM in assay [2]; 0.0043 µM in assay [3]; more than 1 µM in the assay on A549; more than 1 µM in assay [4]; 0.087 µM in the assay on NCI-H2228. The IC50 with HCC78 is 0.081 µM; in the assay on NCI-H460, more than 1 µM; in the assay on KARPAS-299, 0.035 µM.
As for `CC(C)Oc1cc(-c2nc(CNC3CC3)cs2)ccc1Nc1ncc(Cl)c(Nc2ccccc2S(=O)(=O)C(C)C)n1`, the IC50 with A549 is more than 1 µM; in the assay with NCI-H2228, 0.37 µM; in the assay on HCC78 it was more than 1 µM; in the assay on NCI-H460, more than 1 µM; with KARPAS-299 it was 0.24 µM.
Turning to `CC(C)Oc1cc(-c2nc(CN3CCN(CCO)CC3)cs2)ccc1Nc1ncc(Cl)c(Nc2ccccc2S(=O)(=O)C(C)C)n1`, the half-maximal inhibitory concentration (IC50) in assay [1] was 0.0134 µM; in [2], more than 1 µM; in assay [3], 0.004 µM; in the assay on A549 it was more than 1 µM; in assay [4], more than 1 µM; in the assay on NCI-H2228 it was 0.089 µM. The IC50 in the assay on HCC78 is 0.58 µM; in the assay on NCI-H460 it was more than 1 µM; in the assay with KARPAS-299, 0.022 µM.
For the compound `COc1cc(-c2nc(CN3CCC(C)CC3)cs2)ccc1Nc1ncc(Cl)c(Nc2ccccc2S(=O)(=O)C(C)C)n1`, the IC50 was 0.0085 µM in [1]; more than 1 µM in [2]; 0.003 µM in [3]; 0.8 µM in the assay on A549; 0.967 µM in assay [4]; 0.23 µM with NCI-H2228. The IC50 in the assay on HCC78 is 0.38 µM; in the assay on NCI-H460, more than 1 µM; in the assay on KARPAS-299, 0.19 µM.
For the compound `COc1cc(-n2cc(CN3CCN(S(C)(=O)=O)CC3)nn2)ccc1Nc1ncc(Cl)c(Nc2ccccc2S(=O)(=O)C(C)C)n1`, the IC50 in the assay with A549 was 0.7 µM; with NCI-H2228, 0.29 µM; in the assay with HCC78, 0.52 µM; with NCI-H460, more than 1 µM; in the assay on KARPAS-299, 0.14 µM.
Consider `Cc1cc(Nc2ncc(Cl)c(Nc3ccccc3S(=O)(=O)C(C)C)n2)c(OC(C)C)cc1C1CCNCC1` [CERITINIB], for which the IC50 with A549 is more than 1 µM; in the assay on NCI-H2228, 0.099 µM; with NCI-H460 it was more than 1 µM.
Take `COc1cc(-n2cc(CN3CCOCC3)nn2)ccc1Nc1ncc(Cl)c(Nc2ccccc2S(=O)(=O)C(C)C)n1`: the IC50 is more than 1 µM in the assay with A549; 0.15 µM in the assay with NCI-H2228; 0.24 µM in the assay with HCC78; more than 1 µM in the assay on NCI-H460; 0.18 µM with KARPAS-299.
As for `COc1cc(-n2cc(CN3C[C@@H](C)N[C@@H](C)C3)nn2)ccc1Nc1ncc(Cl)c(Nc2ccccc2S(=O)(=O)C(C)C)n1`, the IC50 was 0.003 µM in [1]; 0.865 µM in assay [2]; 0.003 µM in [3]; more than 1 µM with A549; 0.731 µM in [4]; 0.08 µM in the assay with NCI-H2228. In addition, the IC50 with HCC78 was found to be 0.096 µM; in the assay with NCI-H460 it was 0.88 µM; with KARPAS-299, 0.037 µM.
With `COc1cc(-n2cc(CN3CCC(C)CC3)nn2)ccc1Nc1ncc(Cl)c(Nc2ccccc2S(=O)(=O)C(C)C)n1`, the IC50 in [1] is 0.0046 µM; in assay [2], more than 1 µM; in assay [3] it was 0.0039 µM; in the assay on A549, more than 1 µM; in assay [4] it was 0.703 µM; with NCI-H2228 it was 0.19 µM. Further, the IC50 in the assay on HCC78 is 0.32 µM; in the assay with NCI-H460, more than 1 µM; in the assay on KARPAS-299, 0.25 µM.
As for `CC(C)Oc1cc(-c2nc(CN3CCOCC3)cs2)ccc1Nc1ncc(Cl)c(Nc2ccccc2S(=O)(=O)C(C)C)n1`, the IC50 is more than 1 µM in the assay on A549; 0.35 µM in the assay with NCI-H2228; more than 1 µM in the assay with HCC78; 0.69 µM with NCI-H460; 0.14 µM in the assay with KARPAS-299.

Usually IC50 stands for the midpoint of a concentration-inhibition curve.

(Values after ChEMBL document CHEMBL4130574, “Discovery of novel 2,4-diarylaminopyrimidine analogues as ALK and ROS1 dual inhibitors to overcome crizotinib-resistant mutants including G1202R” (Eur J Med Chem, 2018).)
